Patent US11597724B2, “Herbicidally active 3-phenylisoxazoline-5-carboxamides of tetrahydro and dihydrofuran carboxylic acids and esters” (Bayer Aktiengesellschaft, priority 2017, dated 2023)

Assays:
Format in all cases: in vivo
Alopecurus myosuroides = assay: Pre-emergence herbicidal activity against ALOMY; settings: dosage 80 g/ha, scored visually after about 3 weeks vs untreated controls (100% = plants have died, 0% = like control plants); for pest or weed control at 80 g/ha: Alopecurus myosuroides, 504 h
Description: (§1) 1. Pre-Emergence Herbicidal Action and Crop Plant Compatibility Seeds of monocotyledonous and dicotyledonous weed plants and crop plants are placed in plastic or wood fiber pots and covered with soil. The compounds of the invention, formulated in the form of wettable powders (WP) or as emulsion concentrates (EC), are then applied onto the surface of the covering soil as aqueous suspension or emulsion with addition of 0.5% additive at a water application rate of 600 l/ha (converted). After the treatment, the pots are placed in a greenhouse and kept under good growth conditions for the trial plants. After about 3 weeks, the effect of the preparations is scored visually in comparison with untreated controls as percentages. For example, 100% activity=the plants have died, 0% activity=like control plants. ABUTH: Abutilon theophrasti ALOMY: Alopecurus myosuroides

Veronica persica = assay: Pre-emergence herbicidal activity against VERPE; settings: dosage 80 g/ha; for pest or weed control at 80 g/ha: Veronica persica, 504 h
Description: as §1, with “STEME: Stellaria media VERPE: Veronica persica” for “ABUTH: Abutilon theophrasti ALOMY: Alopecurus myosuroides”

Lolium rigidum = assay: Post-emergence herbicidal activity against LOLRI; settings: dosage 320 g/ha, rated about 3 weeks after treatment; for pest or weed control at 320 g/ha: Lolium rigidum, 504 h
Outline: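 Greenhouse-grown plants sprayed post-emergence at the one-leaf stage, 2 to 3 weeks after sowing, with WP or EC formulations plus 0.5% additive at 600 l/ha water. Activity rated visually after about 3 weeks versus untreated controls (100% = plants dead, 0% = like control).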

Abutilon theophrasti = assay: Post-emergence herbicidal activity against ABUTH; settings: dosage 320 g/ha, rated about 3 weeks after treatment; for pest or weed control at 320 g/ha: Abutilon theophrasti, 504 h
Outline: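 Greenhouse-grown plants treated at one-leaf stage, 2 to 3 weeks after sowing, with WP or EC formulations sprayed as aqueous suspension/emulsion plus 0.5% additive at 600 l/ha. Activity rated visually about 3 weeks later versus untreated controls (100% = plants dead, 0% = like control).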

Viola tricolor = assay: Post-emergence herbicidal activity against VIOTR; settings: dosage 320 g/ha, rated about 3 weeks after treatment; for pest or weed control at 320 g/ha: Viola tricolor, 504 h
Outline: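 Greenhouse plants in sandy loam treated at one-leaf stage, 2 to 3 weeks after sowing, by spraying WP or EC formulations with 0.5% additive at 600 l/ha water. Activity rated visually after about 3 weeks versus untreated controls, 100% = plants dead, 0% = like control.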

[1] = Post-emergence treatment, summary over harmful plants; settings: 504 h, application rate of 0.32 kg of active substance or less per hectare, read-out: herbicidal action, post-emergence treatment (very good herbicidal activity)
Outline: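 Greenhouse-grown weeds and crops were sprayed at the one-leaf stage (2–3 weeks post-sowing) with WP or EC formulations plus 0.5% additive at 600 l/ha water. About 3 weeks later, activity was visually rated against untreated controls (100% = dead plants, 0% = like control).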

| Compound | pest or weed control at 80 g/ha (Alopecurus myosuroides) | pest or weed control at 80 g/ha (Veronica persica) | pest or weed control at 320 g/ha (Lolium rigidum) | pest or weed control at 320 g/ha (Abutilon theophrasti) | pest or weed control at 320 g/ha (Viola tricolor) | pest or weed control at 320 g/ha [1] | Pre-emergence herbicidal activity against ALOMY in % (Alopecurus myosuroides) | Pre-emergence herbicidal activity against VERPE in % (Veronica persica) | Post-emergence herbicidal activity against LOLRI in % (Lolium rigidum) | Post-emergence herbicidal activity against ABUTH in % (Abutilon theophrasti) | Post-emergence herbicidal activity against VIOTR in % (Viola tricolor) |
| --- | --- | --- | --- | --- | --- | --- | --- | --- | --- | --- | --- |
| C=C[C@]1(C(=O)N[C@H]2CO[C@@H](C(=O)OC(C)(C)C)C2)CC(c2cc(F)cc(F)c2)=NO1 (mixture of isomers) [I-38, tert-butyl cis-4-[[(5S)-3-(3,5-difluorophenyl)-5-vinyl-4H-isoxazole-5-carbonyl]amino]tetrahydrofuran-2-carboxylate] | 100% | 100% | 90% | 80% | 80% | 80 to 100% | – | – | – | – | – |
| COC(=O)[C@H]1C[C@@H](NC(=O)C2(C)CC(c3cc(F)cc(F)c3)=NO2)CO1 (relative stereo) [I-01, methyl cis-4-[[3-(3,5-difluorophenyl)-5-methyl-4H-isoxazole-5-carbonyl]amino]tetrahydrofuran-2-carboxylate] | 100% | 80% | – | 80% | 90% | 80 to 100% | – | – | – | – | – |
| C=C[C@]1(C(=O)N[C@H]2CO[C@@H](C(=O)OC)C2)CC(c2cc(F)cc(F)c2)=NO1 (mixture of isomers) [I-10, methyl cis-4-[[(5S)-3-(3,5-difluorophenyl)-5-vinyl-4H-isoxazole-5-carbonyl]amino]tetrahydrofuran-2-carboxylate] | 100% | 100% | 100% | 90% | 80% | 80 to 100% | – | – | – | – | – |
| COC(=O)C1COCC1NC(=O)C1(C)CC(c2cc(F)cc(F)c2)=NO1 (stereo not drawn) [I-19, methyl 4-[[3-(3,5-difluorophenyl)-5-methyl-4H-isoxazole-5-carbonyl]amino]tetrahydrofuran-3-carboxylate] | 90% | 90% | – | 80% | 80% | 80 to 100% | – | – | – | – | – |
| C=C[C@]1(C(=O)N[C@H]2CO[C@@H](C(=O)OC(C)C)C2)CC(c2cc(F)cc(F)c2)=NO1 (mixture of isomers) [I-36, isopropyl cis-4-[[(5S)-3-(3,5-difluorophenyl)-5-vinyl-4H-isoxazole-5-carbonyl]amino]tetrahydrofuran-2-carboxylate] | 100% | 100% | 90% | 90% | 90% | 80 to 100% | – | – | – | – | – |
| CCOC(=O)C1CC(NC(=O)C2(C)CC(c3cc(F)cc(F)c3)=NO2)CO1 (mixture of isomers) [I-43] | – | – | – | – | – | – | 100% | 90% | 100% | 80% | 90% |
| COC(=O)C1COCC1NC(=O)C1(OC)CC(c2cc(Cl)cc(Cl)c2)=NO1 (stereo not drawn) [I-29, methyl 4-[[3-(3,5-dichlorophenyl)-5-methoxy-4H-isoxazole-5-carbonyl]amino]tetrahydrofuran-3-carboxylate] | 90% | 100% | – | 80% | 80% | 80 to 100% | – | – | – | – | – |
| C=C[C@]1(C(=O)N[C@H]2CO[C@@H](C(=O)OC)C2)CC(c2cc(F)cc(F)c2)=NO1 (single isomer, unassigned) [I-12] | 100% | 100% | – | – | – | 80 to 100% | – | – | 100% | 90% | 100% |
| CC1(C(=O)NC2COC(C(=O)OCc3ccccc3)C2)CC(c2cc(F)cc(F)c2)=NO1 (mixture of isomers) [I-45] | – | – | – | – | – | – | 100% | 80% | 100% | 80% | 90% |
| C=CC1(C(=O)N[C@H]2CO[C@@H](C(=O)O)C2)CC(c2cc(F)cc(F)c2)=NO1 (relative stereo) [I-21, cis-4-[[3-(3,5-difluorophenyl)-5-vinyl-4H-isoxazole-5-carbonyl]amino]tetrahydrofuran-2-carboxylic acid] | 100% | 100% | – | – | 80% | 80 to 100% | – | – | – | – | – |
| COC(=O)C1COCC1NC(=O)[C@@]1(C)CC(c2cc(F)cc(F)c2)=NO1 (stereo partly drawn) [I-28, methyl 4-[[(5R)-3-(3,5-difluorophenyl)-5-methyl-4H-isoxazole-5-carbonyl]amino]tetrahydrofuran-3-carboxylate] | 100% | 90% | – | 80% | 80% | 80 to 100% | – | – | – | – | – |
| CC(C)OC(=O)C1CC(NC(=O)C2(C)CC(c3cc(F)cc(F)c3)=NO2)CO1 (stereo not drawn) [I-44] | – | – | – | – | – | – | 100% | 80% | 100% | 80% | 90% |
| C=C[C@]1(C(=O)N[C@H]2CO[C@@H](C(=O)OC)C2)CC(c2cc(F)cc(F)c2)=NO1 (single isomer, unassigned) [I-11] | – | – | 100% | 90% | 90% | – | 100% | 100% | – | – | – |
| COC(=O)[C@H]1C[C@@H](NC(=O)[C@@]2(C)CC(c3cc(F)cc(F)c3)=NO2)CO1 (mixture of isomers) [I-09, methyl cis-4-[[(5R)-3-(3,5-difluorophenyl)-5-methyl-4H-isoxazole-5-carbonyl]amino]tetrahydrofuran-2-carboxylate] | 100% | 90% | – | – | 80% | 80 to 100% | – | – | – | – | – |
| CC(C)(C)OC(=O)C1CC(NC(=O)C2(C)CC(c3cc(F)cc(F)c3)=NO2)CO1 (mixture of isomers) [I-42] | – | – | – | – | – | – | 100% | 90% | 100% | 80% | 90% |
| COC(=O)C1CC(NC(=O)C2(C(C)(F)F)CC(c3cc(F)cc(F)c3)=NO2)CO1 (stereo not drawn) [I-49] | – | – | – | – | – | – | 100% | 100% | 90% | – | 80% |
| COC(=O)C1CC(NC(=O)C2(C)CC(c3cc(F)cc(F)c3)=NO2)CO1 (mixture of isomers) [I-48] | – | – | – | – | – | – | 100% | 100% | 90% | 80% | 80% |
| CC(C)(C)OC(=O)[C@H]1C[C@@H](NC(=O)C2(C)CC(c3cccc(F)c3)=NO2)CO1 (mixture of isomers) [I-33, tert-butyl cis-4-[[(5RS)-3-(3-fluorophenyl)-5-methyl-4H-isoxazole-5-carbonyl]amino]tetrahydrofuran-2-carboxylate] | 100% | 100% | 100% | – | – | 80 to 100% | – | – | – | – | – |
